Measured values: patent US20200256882A1, “FLUID PROPERTY MEASUREMENT DEVICES AND METHODS” (Abram Scientific, Inc., priority 2019, published 2020)
Where two headings read alike, the source gives them in different places. Positions of bridges follow the written chain, without caps; N, C: chain ends. Non-standard residues stand in square brackets, D forms with d. Residues, ends and D or L forms follow the SMILES beside them. hArg = N=C(N)NCCCC[C@H](N)C(=O)O; Mpa = O=C(O)CCS

Columns and labels:
[1] = system: venous whole blood samples (intrinsic coagulation pathway); assay: Activated partial thromboplastin time (aPTT) coagulation test on disposable test strip; type: biochemical; conditions: citrated venous whole blood spiked in vitro, 0.0 to 1.0 IU/ml; FIG. 10, R^2=0.92
Description: The disposable test strips used in this example were incorporated with a reagent comprising of Actin-FS activated partial thromboplastin time reagent (Siemens Diagnostics, Catalog# B4218-20), calcium chloride (25 mM) and Tween (2% v/v aqueous solution). Prior to the final assembly of the strip, the reagent was incorporated by dispensing the solution on to the exposed hydrophilic surface in the bottom stack, followed by air-drying in a drying box with humidity control at standard room temperature and pressure. The ratio of the volume of the reagent to blood tested in the chamber was maintained at close to 2:1 to ensure successful initiation of the blood coagulation reaction. […]
In this example, the oscillation characteristics (e.g., amplitude) of the in-plane mode of a physical element in single-use disposable test strips were monitored and recorded before and after introduction of the blood sample, in order to measure the change in viscosity and viscoelasticity of the blood sample as a function of time as it undergoes coagulation. […] An algorithm was used to track the measured oscillation characteristics, viscosity and/or viscoelasticity as a function of time and identify a time to clot formation (measured starting from blood sample insertion time, t=0), in other words known as the partial thromboplastin time (aPTT). […]

[2] = system: venous whole blood samples (intrinsic coagulation pathway); assay: Low range activated clotting time (ACT) coagulation test on disposable test strip; type: biochemical; conditions: citrated venous whole blood spiked in vitro, 0.0 to 3.0 IU/ml; FIG. 11, R^2=0.99
Description: (§1) The disposable test strips used in this example were incorporated with a reagent comprising of kaolin suspended in distilled water, calcium chloride (25 mM) and Tween (2% v/v aqueous solution). Prior to the final assembly of the strip, the reagent was incorporated by dispensing the solution on to the exposed hydrophilic surface in the bottom stack, followed by air-drying in a drying box with humidity control at standard room temperature and pressure. […]
(§2) Results: • In this example, the oscillation characteristics (e.g., amplitude) of the in-plane mode of a physical element in single-use disposable test strips were monitored and recorded before and after introduction of the blood sample, in order to measure the change in viscosity and viscoelasticity of the blood sample as a function of time as it undergoes coagulation. […] An algorithm was used to track the measured oscillation characteristics, viscosity and/or viscoelasticity as a function of time and identify a time to clot formation (measured starting from blood sample insertion time, t=0), in other words known as the activated clotting time (ACT). […] In this specific example, the ACT clotting time measured corresponds to a low-range ACT measurement given the system's sensitivity from 0.0 to 3.0 IU/ml, which corresponds to the low range of heparin therapy used during cardiac and hepatic surgeries.

[3] = system: venous whole blood samples (intrinsic coagulation pathway); assay: High range activated clotting time (ACT) coagulation test on disposable test strip; type: biochemical; conditions: citrated venous whole blood spiked in vitro, 1.0 to 5.0 IU/ml; FIG. 12, R^2=0.95
Description: as §1
as §2, with “high-range” for “low-range”, “1.0” for “0.0”, “5.0” for “3.0”, “high” for “low”

[4] = system: whole blood samples (extrinsic coagulation pathway); assay: Thromboelastogram (TEG) coagulation test on disposable test strip; type: biochemical; conditions: for peak / maximum thrombin generation (ThrombinPeak): blood samples with increasing concentrations of the anticoagulant (heparin 0 to 3 IU/ml); for clot formation time (R): blood samples with increasing concentrations of the anticoagulant, FIG. 20(a), 21(a); for clot stiffness G: blood samples with increasing concentrations of the substance (cleavable fibrinogen 42 to 231 mg/dL); for ratio of the normalized ThrombinPeak and clot stiffness G: tested samples with increasing anticoagulant concentrations, FIG. 22(d)
Description: The disposable test strips used in this example were incorporated with a reagent comprising of rabbit brain thromboplastin (Pacific Hemostasis Prothrombin Time reagent, Thromboplastin-DS, Product# 29-227-3), calcium chloride (25 mM) and Tween (2% v/v aqueous solution). Prior to the final assembly of the strip, the reagent was incorporated by dispensing the solution on to the exposed hydrophilic surface in the bottom stack, followed by air-drying in a drying box with humidity control at standard room temperature and pressure. The ratio of the volume of the reagent to blood tested in the chamber was maintained at close to 2:1 to ensure successful initiation of the blood coagulation reaction. […] In this example, venous whole blood and finger-stick, capillary whole blood samples from a normal subject were used. In addition, finger-stick, capillary whole blood samples from patients undergoing warfarin therapy at an anticoagulation clinic were used. Following procurement of informed consent under an Institutional Review Board (IRB) approved protocol, phlebotomy was performed to extract the blood sample by venipuncture and the sample was directly dispensed into blood collection tubes containing sodium citrate anticoagulant. The citrated whole blood samples were contrived in vitro to incorporate varying amounts of unfractionated heparin (0 to 3 IU/ml), cleavable fibrinogen (42 to 231 mg/dL), Eptifibatide (GPIIb/IIIa platelet inhibitor, 0 to 12 μg/mL), and tissue plasminogen activator (tPA, 0 to 1.8 nM). Further in some tests, following procurement of informed consent under an Institutional Review Board (IRB) approved protocol, a standard lancet was used to extract blood samples by finger-stick and a standard microliter pipette or dropper was used to pick up the sample for insertion into the disposable test strip. Lastly, in some tests, blood samples were also tested using 2 Haemonetics' TEG-5000 instruments (2 tests per instrument) and their corresponding TEG curve & parameters were recorded, in order to perform side-by-side comparison with the results generated using the disposable test strips. Results: • In this example, the oscillation characteristics (amplitude and phase) of the in-plane vibration mode of a physical element in single-use disposable test strips were measured as a function of frequency in the vicinity of the resonance frequency, and these amplitude & phase frequency scans were monitored periodically to determine different aspects of the blood coagulation cascade. The blood sample upon entering the chamber reacted with the dried reagent and started to coagulate through the extrinsic coagulation pathway. An example of the amplitude and phase frequency scans of an oscillating physical element in a disposable test strip with a blood sample in the chamber undergoing coagulation is shown in FIGS. 13(a) and 13(b), respectively, wherein the amplitude and phase at the resonance frequency peak are seen to decrease in magnitude as the blood coagulation cascade progresses. These amplitude and phase frequency scans monitored periodically over time were used to perform a Thromboelastogram (TEG) test, wherein a characteristic […] shaped viscoelastic curve and parameters were extracted. The TEG-like viscoelastic parameters extracted were clot formation time (R), activated clotting time (ACT), maximum thrombin generation (ThrombinPeak), clot stiffness (G), platelet contraction rate (Plt-Cont), and fibrinolysis rate (Lys-Rate). A mathematical model of the viscoelastic oscillation damping of the physical element, which incorporated the different kinetic processes in the coagulation cascade, was used to fit to data from the amplitude and phase frequency scans measured as a function of time. […]

[5] = Description: Ethylene glycol solutions were prepared using de-ionized water in varying concentrations ranging from 0 to 40.38% as shown in Table I. The solutions were prepared in 20 ml de-ionized water and corresponding volume of ethylene glycol solutions concentrations. The fluid sample, when introduced into the assembled disposable test strip through the inlet port (i.e. rectangular opening 207 in FIG. 2(a)), wicked into the chamber under the region of the substrate layer leading up to the suspended beam, followed by the fluid flow being directed through the chamber along the beam length while maintaining contact with the underside of the beam (at or slightly beyond its width), and finally, flowing through the chamber under the region of the substrate layer past the beam leading up to the vent port (i.e. rectangular opening 208 in FIG. 2(a)), which permits air to escape from the chamber as it is loaded with the fluid sample.
[6] = 16.22 % v/v in de-ionized water
[7] = 40.38 % v/v in de-ionized water
[8] = 3 warfarin patient samples, increasing warfarin activity, FIG. 15

heparin
uncalibrated aPTT clotting time [1]: linear dose response | uncalibrated ACT clotting time (low-range) [2]: linear dose response | uncalibrated ACT clotting time (high-range) [3]: linear dose response | peak / maximum thrombin generation (ThrombinPeak) [4]: decrease | activated clotting time (ACT), time to peak thrombin generation ([4]; blood samples with increasing heparin concentrations from 0 to 3 IU/ml, FIG. 16): increase

O=C(NC[C@H]1CN(c2ccc(N3CCOCC3=O)cc2)C(=O)O1)c1ccc(Cl)s1 [Rivaroxaban]
peak / maximum thrombin generation (ThrombinPeak) [4]: reducing | clot formation time (R) [4]: increasing linear trend | clot stiffness G [4]: limited to no effect | ratio of the normalized ThrombinPeak and clot stiffness G [4]: decreasing linear trend

N=C(N)NCCCC[C@@H]1NC(=O)CCSSC[C@@H](C(N)=O)NC(=O)[C@@H]2CCCN2C(=O)[C@H](Cc2c[nH]c3ccccc23)NC(=O)[C@H](CC(=O)O)NC(=O)CNC1=O [Eptifibatide] ([Mpa][hArg]GDWPC-NH2; disulfide 1-7)
rate of platelet contraction (Plt-Cont) ([4]; blood samples with increasing concentrations, 0 to 12 μg/mL, FIG. 18(b)): decreasing trend

OCCO [Ethylene Glycol, ethylene glycol]
Density ([5]; 10 % v/v in de-ionized water): 1.035 gm/cc | Viscosity ([5]; 10 % v/v in de-ionized water): 1.9903 cP | Density [5, 6]: 1.052 gm/cc | Viscosity [5, 6]: 2.7938 cP | Density ([5]; 22.5 % v/v in de-ionized water): 1.065 gm/cc | Viscosity ([5]; 22.5 % v/v in de-ionized water): 3.711 cP | Density [5, 7]: 1.088 gm/cc | Viscosity [5, 7]: 6.8247 cP

Dabigatran
peak / maximum thrombin generation (ThrombinPeak) [4]: limited to no effect | clot formation time (R) [4]: increasing linear trend | clot stiffness G [4]: reducing | ratio of the normalized ThrombinPeak and clot stiffness G [4]: increasing

CC(=O)CC(c1ccccc1)c1c(O)c2ccccc2oc1=O (stereo not shown) [warfarin]
maximum thrombin generation ([4]; 3 warfarin patient samples, increasing warfarin activity (PT 17.4, 36.4, 54.4 seconds), FIG. 15): steady decrease | time to maximum fibrin formation (TMA) [4, 8]: delayed | time to maximum thrombin generation (analogous to the ACT) [4, 8]: delayed
